Laboratory results as given in PubChem BioAssay (NCI).
Values joined by “and” are separate entries in the source; they are usually repeats but may differ in a detail not shown here. Identical values can stand only once.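 Interpolation was linear, between the two tested concentrations surrounding the appropriate level; five concentrations were tested over 48 hours in 96-well plates. Here, GI50 denotes the concentration required for 50% inhibition of growth. The concentration for full growth arrest is given as TGI.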

Assays:
Experiment in all cases: inhibition of tumour cell growth, NCI panel, 48 h
NCI-H522 lung = test system: NCI-H522 lung
SNB-19 CNS = test system: SNB-19 CNS
SF-539 CNS = test system: SF-539 CNS
MDA-MB-231 breast = test system: MDA-MB-231 breast
SK-OV-3 ovarian = test system: SK-OV-3 ovarian
BT-549 breast = test system: BT-549 breast
NCI-H23 lung = test system: NCI-H23 lung
A549 NSCLC = test system: A549 NSCLC
HOP-62 NSCLC = test system: HOP-62 NSCLC
SN12C renal = test system: SN12C renal
CAKI-1 renal = test system: CAKI-1 renal
SF-295 CNS = test system: SF-295 CNS
NCI-H226 lung = test system: NCI-H226 lung
IGROV1 ovarian = test system: IGROV1 ovarian
COLO 205 colon = test system: COLO 205 colon
OVCAR-3 ovarian = test system: OVCAR-3 ovarian
MCF7 breast = test system: MCF7 breast
HCC-2998 colon = test system: HCC-2998 colon
CCRF-CEM leukemia = test system: CCRF-CEM leukemia
K-562 leukemia = test system: K-562 leukemia
NCI/ADR-RES ovarian = test system: NCI/ADR-RES ovarian
LOX IMVI melanoma = test system: LOX IMVI melanoma
UO-31 renal = test system: UO-31 renal
PC-3 prostate = test system: PC-3 prostate
SF-268 CNS = test system: SF-268 CNS
MOLT-4 leukemia = test system: MOLT-4 leukemia
A498 renal = test system: A498 renal
786-0 renal = test system: 786-0 renal
HL-60(TB) leukemia = test system: HL-60(TB) leukemia
HOP-92 NSCLC = test system: HOP-92 NSCLC
M14 melanoma = test system: M14 melanoma
MDA-MB-435 = test system: MDA-MB-435
HCT-15 colon = test system: HCT-15 colon
HT29 colon = test system: HT29 colon
T-47D breast = test system: T-47D breast
OVCAR-5 ovarian = test system: OVCAR-5 ovarian
SK-MEL-5 melanoma = test system: SK-MEL-5 melanoma
NCI-H460 lung = test system: NCI-H460 lung
SK-MEL-2 melanoma = test system: SK-MEL-2 melanoma
SNB-75 CNS = test system: SNB-75 CNS
UACC-257 melanoma = test system: UACC-257 melanoma
RXF 393 renal = test system: RXF 393 renal
RPMI-8226 leukemia = test system: RPMI-8226 leukemia
SR leukemia = test system: SR leukemia
KM12 colon = test system: KM12 colon
SW-620 colon = test system: SW-620 colon
U251 CNS = test system: U251 CNS
OVCAR-4 ovarian = test system: OVCAR-4 ovarian
EKVX NSCLC = test system: EKVX NSCLC
UACC-62 melanoma = test system: UACC-62 melanoma
HS 578T breast = test system: HS 578T breast
HCT-116 colon = test system: HCT-116 colon
SK-MEL-28 melanoma = test system: SK-MEL-28 melanoma
TK-10 renal = test system: TK-10 renal
DU-145 prostate = test system: DU-145 prostate
ACHN renal = test system: ACHN renal
OVCAR-8 ovarian = test system: OVCAR-8 ovarian
MALME-3M melanoma = test system: MALME-3M melanoma

Structure (SMILES): CC(C)Nc1cc(-c2c[nH]c(C(=O)N[C@H](CO)c3cccc(Cl)c3)c2)c(Cl)cn1
- GI50 (NCI-H522 lung): 2.33 µM and 2.35 µM
- TGI (NCI-H522 lung): 19.8 µM and > 10 µM
- GI50 (SNB-19 CNS): 4.84 µM
- TGI (SNB-19 CNS): 20.6 µM and > 10 µM
- GI50 (SF-539 CNS): 6.04 µM
- TGI (SF-539 CNS): 20.2 µM and > 10 µM
- GI50 (MDA-MB-231 breast): 1.67 µM and 1.02 µM
- TGI (MDA-MB-231 breast): 13.6 µM and > 8.38 µM
- GI50 (SK-OV-3 ovarian): 3.23 µM and > 7.67 µM
- TGI (SK-OV-3 ovarian): 18 µM and > 10 µM
- GI50 (BT-549 breast): 3.19 µM and > 5.25 µM
- TGI (BT-549 breast): 15.7 µM and > 10 µM
- GI50 (NCI-H23 lung): 0.308 µM and 0.258 µM
- TGI (NCI-H23 lung): 16 µM and > 10 µM
- GI50 (A549 NSCLC): 2.33 µM and 0.919 µM
- TGI (A549 NSCLC): 20.3 µM and > 10 µM
- GI50 (HOP-62 NSCLC): 3.93 µM and 0.479 µM
- TGI (HOP-62 NSCLC): 26.4 µM and > 10 µM
- GI50 (SN12C renal): 4.04 µM and > 4.03 µM
- TGI (SN12C renal): 20.9 µM and > 10 µM
- GI50 (CAKI-1 renal): 1.17 µM and 1.87 µM
- TGI (CAKI-1 renal): 19.1 µM and > 10 µM
- GI50 (SF-295 CNS): 4.22 µM and > 8.07 µM
- TGI (SF-295 CNS): 18.1 µM and > 10 µM
- GI50 (NCI-H226 lung): 3.17 µM and > 3.67 µM
- TGI (NCI-H226 lung): 24.2 µM and > 10 µM
- GI50 (IGROV1 ovarian): 0.516 µM and 0.366 µM
- TGI (IGROV1 ovarian): 20.5 µM and > 10 µM
- GI50 (COLO 205 colon): 0.104 µM and 0.076 µM
- TGI (COLO 205 colon): 3.06 µM and 1.59 µM
- GI50 (OVCAR-3 ovarian): 4.66 µM and > 9.46 µM
- TGI (OVCAR-3 ovarian): 18.8 µM and > 10 µM
- GI50 (MCF7 breast): 2.16 µM and 1.62 µM
- TGI (MCF7 breast): 19.1 µM and > 10 µM
- GI50 (HCC-2998 colon): 0.19 µM and 0.209 µM
- TGI (HCC-2998 colon): 13.8 µM and > 10 µM
- GI50 (CCRF-CEM leukemia): 4.09 µM and 4.7 µM
- TGI (CCRF-CEM leukemia): > 100 µM
- GI50 (K-562 leukemia): 3.35 µM
- TGI (K-562 leukemia): > 10 µM
- GI50 (NCI/ADR-RES ovarian): 5.57 µM and > 7.85 µM
- TGI (NCI/ADR-RES ovarian): 24.4 µM and > 10 µM
- GI50 (LOX IMVI melanoma): 0.157 µM and 0.316 µM
- TGI (LOX IMVI melanoma): 12.8 µM and > 10 µM
- GI50 (UO-31 renal): 0.986 µM and 0.838 µM
- TGI (UO-31 renal): 14.5 µM and > 10 µM
- GI50 (PC-3 prostate): 3.96 µM and > 5.54 µM
- TGI (PC-3 prostate): 18.4 µM and > 10 µM
- GI50 (SF-268 CNS): 4.46 µM and > 7.71 µM
- TGI (SF-268 CNS): 24.5 µM and > 10 µM
- GI50 (MOLT-4 leukemia): 2.55 µM and 2.57 µM
- TGI (MOLT-4 leukemia): 19.6 µM and > 10 µM
- GI50 (A498 renal): 0.084 µM and 0.255 µM
- TGI (A498 renal): 1.41 µM and 1.95 µM
- GI50 (786-0 renal): 2.85 µM and 3.23 µM
- TGI (786-0 renal): 18.3 µM and > 10 µM
- GI50 (HL-60(TB) leukemia): 0.378 µM and 0.272 µM
- TGI (HL-60(TB) leukemia): 4.67 µM and > 10 µM
- GI50 (HOP-92 NSCLC): 0.312 µM and 0.233 µM
- TGI (HOP-92 NSCLC): 2.84 µM and 1.81 µM
- GI50 (M14 melanoma): 0.101 µM
- TGI (M14 melanoma): > 2.58 µM
- GI50 (MDA-MB-435): 0.312 µM and 0.335 µM
- TGI (MDA-MB-435): 14.9 µM and > 10 µM
- GI50 (HCT-15 colon): 2.89 µM and 2.68 µM
- TGI (HCT-15 colon): 14.4 µM and > 10 µM
- GI50 (HT29 colon): 0.0894 µM and 0.0951 µM
- TGI (HT29 colon): 11.6 µM and > 10 µM
- GI50 (T-47D breast): 1.77 µM and > 5.23 µM
- TGI (T-47D breast): 16.8 µM and > 10 µM
- GI50 (OVCAR-5 ovarian): 0.259 µM and 0.187 µM
- TGI (OVCAR-5 ovarian): 16.2 µM and > 10 µM
- GI50 (SK-MEL-5 melanoma): 0.64 µM and 0.752 µM
- TGI (SK-MEL-5 melanoma): 7.82 µM and 9.83 µM
- GI50 (NCI-H460 lung): 1.35 µM and 1.05 µM
- TGI (NCI-H460 lung): 15.8 µM and > 10 µM
- GI50 (SK-MEL-2 melanoma): 0.18 µM and 0.179 µM
- TGI (SK-MEL-2 melanoma): 0.75 µM and 1.41 µM
- GI50 (SNB-75 CNS): 4.5 µM and > 5.45 µM
- TGI (SNB-75 CNS): 19.8 µM and > 10 µM
- GI50 (UACC-257 melanoma): 0.0732 µM
- TGI (UACC-257 melanoma): 0.519 µM
- GI50 (RXF 393 renal): 2.14 µM and 1.06 µM
- TGI (RXF 393 renal): 15 µM and > 10 µM
- GI50 (RPMI-8226 leukemia): 3.09 µM and 1.14 µM
- TGI (RPMI-8226 leukemia): 45.9 µM and > 10 µM
- GI50 (SR leukemia): 3.38 µM and 3.66 µM
- TGI (SR leukemia): 40.5 µM and > 10 µM
- GI50 (KM12 colon): 0.751 µM and 0.444 µM
- TGI (KM12 colon): 15.5 µM and > 10 µM
- GI50 (SW-620 colon): 0.249 µM and 0.296 µM
- TGI (SW-620 colon): 16.7 µM and > 10 µM
- GI50 (U251 CNS): 1.71 µM and 1.09 µM
- TGI (U251 CNS): 18 µM and > 10 µM
- GI50 (OVCAR-4 ovarian): 3.68 µM and > 6.63 µM
- TGI (OVCAR-4 ovarian): 20.7 µM and > 10 µM
- GI50 (EKVX NSCLC): 1.97 µM and 0.783 µM
- TGI (EKVX NSCLC): 15.4 µM and > 10 µM
- GI50 (UACC-62 melanoma): 0.0826 µM and 0.13 µM
- TGI (UACC-62 melanoma): 12.3 µM and > 10 µM
- GI50 (HS 578T breast): 4.32 µM and > 9.06 µM
- TGI (HS 578T breast): 60.5 µM and > 10 µM
- GI50 (HCT-116 colon): 0.154 µM and 0.162 µM
- TGI (HCT-116 colon): 11.4 µM and > 10 µM
- GI50 (SK-MEL-28 melanoma): 0.126 µM and 0.0718 µM
- GI50 (TK-10 renal): 0.795 µM and 0.36 µM
- TGI (TK-10 renal): 18.6 µM and > 10 µM
- GI50 (DU-145 prostate): 5.96 µM and 9.49 µM
- TGI (DU-145 prostate): 20.4 µM and > 10 µM
- GI50 (ACHN renal): 2.24 µM and 2.08 µM
- TGI (ACHN renal): 14.9 µM and > 10 µM
- GI50 (OVCAR-8 ovarian): 7.75 µM and 8.82 µM
- TGI (OVCAR-8 ovarian): 24.3 µM and > 10 µM
- GI50 (MALME-3M melanoma): 0.0249 µM and 0.0475 µM
- TGI (MALME-3M melanoma): 0.149 µM
